Data reported in ChEMBL document CHEMBL1201862, “PubChem BioAssay data set” (2004).
Calls of active or inactive are those of the source.

Experiments:
NADPH oxidase 1 = target: T1, NADPH oxidase 1 (Homo sapiens, UniProt Q9Y5S8); assay: Late-stage luminescence-based cell-based dose response assay to identify inhibitors of NADPH oxidase 1 (NOX1): Purchased analogs 2.; type: functional
T1 sequence (Q9Y5S8 whole entry): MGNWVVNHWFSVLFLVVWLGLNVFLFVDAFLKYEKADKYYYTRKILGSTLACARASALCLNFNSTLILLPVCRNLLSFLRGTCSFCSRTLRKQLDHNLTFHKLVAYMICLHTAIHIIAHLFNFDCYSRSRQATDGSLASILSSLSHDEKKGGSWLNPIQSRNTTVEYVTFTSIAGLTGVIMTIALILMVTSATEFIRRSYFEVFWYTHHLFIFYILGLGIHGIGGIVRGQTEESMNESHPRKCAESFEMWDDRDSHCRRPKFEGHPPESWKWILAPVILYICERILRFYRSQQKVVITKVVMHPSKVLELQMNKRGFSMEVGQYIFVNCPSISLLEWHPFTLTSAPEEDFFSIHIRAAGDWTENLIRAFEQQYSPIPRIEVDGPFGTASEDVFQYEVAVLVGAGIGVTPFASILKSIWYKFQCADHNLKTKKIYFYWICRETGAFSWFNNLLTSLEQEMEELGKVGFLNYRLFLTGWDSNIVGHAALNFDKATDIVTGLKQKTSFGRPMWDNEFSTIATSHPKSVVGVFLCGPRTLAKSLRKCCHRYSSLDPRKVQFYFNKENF

[1] = M. tuberculosis H37Rv growth inhibitors, H37Rv strain (AID 1626); type: functional
[2] = target: Solute carrier family 12 member 2/member 5 (Homo sapiens, UniProt P55011+Q9H2X9); assay: KCC2 and NKCC1 inhibition by rubidium flux, cell-based, NKCC1 counter-screen (AID 1734); type: functional, HEK293
Trypsin = Trypsin (Sus scrofa, UniProt P00761); assay: porcine trypsin inhibitors, dose response, selectivity assay for Rce1 protease inhibitor project, biochemical, quenched peptide fluorescence, cherry-pick (AID 488789)
CAAX prenyl protease 2 [3] = target: T2, CAAX prenyl protease 2 (Saccharomyces cerevisiae S288c, UniProt Q03530); type: biochemical
T2 sequence (Q03530 whole entry): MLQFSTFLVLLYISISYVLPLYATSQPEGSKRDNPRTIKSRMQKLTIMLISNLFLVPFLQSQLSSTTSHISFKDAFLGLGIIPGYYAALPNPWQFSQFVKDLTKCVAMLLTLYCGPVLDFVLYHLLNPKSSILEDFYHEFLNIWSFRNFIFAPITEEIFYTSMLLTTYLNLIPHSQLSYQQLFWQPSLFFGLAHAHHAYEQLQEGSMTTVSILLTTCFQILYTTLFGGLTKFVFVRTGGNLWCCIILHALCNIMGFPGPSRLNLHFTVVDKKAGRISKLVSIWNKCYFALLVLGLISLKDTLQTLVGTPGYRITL

CAAX prenyl protease 2 [4] = target: T3, CAAX prenyl protease 2 (Homo sapiens, UniProt Q9Y256); assay: human Rce1 protease inhibitors, dose response, biochemical, yeast membranes, quenched-peptide fluorescence, cherry-pick (AID 588849)
T3 sequence (Q9Y256 whole entry): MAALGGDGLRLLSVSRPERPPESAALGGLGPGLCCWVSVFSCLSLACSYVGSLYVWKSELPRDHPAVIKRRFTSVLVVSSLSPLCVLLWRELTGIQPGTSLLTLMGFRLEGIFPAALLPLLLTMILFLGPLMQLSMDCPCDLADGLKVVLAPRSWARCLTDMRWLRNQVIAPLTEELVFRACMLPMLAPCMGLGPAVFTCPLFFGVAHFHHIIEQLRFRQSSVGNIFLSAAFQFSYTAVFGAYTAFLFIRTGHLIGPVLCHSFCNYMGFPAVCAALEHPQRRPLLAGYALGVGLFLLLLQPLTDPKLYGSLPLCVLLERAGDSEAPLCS

Kallikrein-7 = Kallikrein-7 (Homo sapiens, UniProt P49862); assay: Fluorescence Intensity-based biochemical primary high throughput dose response assay to identify activators of kallikrein-7 (K7) zymogen.
Protein Tat = Protein Tat (Human immunodeficiency virus type 1 group M subtype B (isolate HXB2)(HIV-1), UniProt P04608); type: functional;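 also: tat binding to TAR RNA read out by fluorescence polarization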
[5] = NIH-3T3 fibroblast cytotoxicity, dose response, cytotoxicity control, cell-based, fluorescence, Alamar Blue, secondary assay (AID 2327); type: functional;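 also: NIH-3T3 mouse fibroblasts cultured with fluconazole at 8 µg/mL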
[6] = C. albicans growth with fluconazole, confirmation, fluorescence, retest (AID 2467); type: functional, cell-based
[7] = target: E3 ubiquitin-protein ligase UHRF1 (Homo sapiens, UniProt Q96T88); assay: Counterscreen for inhibitors of 5-meCpG-binding domain protein 2 (MBD2): TRFRET-based biochemical high throughput dose response assay to identify inhibitors of binding of ubiquitin-like with PHD and ring finger domains 1 (UHRF1) to methylated oligonucleotide.
[8] = target: T4, Mannose-6-phosphate isomerase (Homo sapiens, UniProt P34949); assay: human PMI inhibitors, high substrate, primary screen, biochemical, fluorescence intensity, high mannose 6-phosphate (AID 1220)
T4 sequence (P34949 whole entry): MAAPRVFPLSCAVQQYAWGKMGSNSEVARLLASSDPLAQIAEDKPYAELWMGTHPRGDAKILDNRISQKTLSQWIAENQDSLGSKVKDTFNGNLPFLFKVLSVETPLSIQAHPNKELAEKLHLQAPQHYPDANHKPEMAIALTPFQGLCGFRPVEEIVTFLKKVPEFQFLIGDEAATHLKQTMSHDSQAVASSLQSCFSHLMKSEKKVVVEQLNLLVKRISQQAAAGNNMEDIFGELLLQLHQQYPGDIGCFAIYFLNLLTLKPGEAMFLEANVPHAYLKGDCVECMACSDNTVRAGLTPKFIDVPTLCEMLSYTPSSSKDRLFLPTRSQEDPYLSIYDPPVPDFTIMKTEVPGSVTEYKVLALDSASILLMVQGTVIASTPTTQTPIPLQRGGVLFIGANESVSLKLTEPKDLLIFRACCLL

[9] = target: NAD-dependent protein deacylase sirtuin-5, mitochondrial (Homo sapiens, UniProt Q9NXA8); assay: SIRT5 desuccinylase inhibitors, dose response, biochemical, fluorescence imaging, cherry-pick, set 5 (AID 720591);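 also: desuccinylation of succinyl peptide AMC substrate read as fluorescence after trypsin release; potency of inhibitors that lower fluorescence and may act on trypsin instead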
NAD-dependent protein deacylase sirtuin-5, mitochondrial, sequence (Q9NXA8 whole entry): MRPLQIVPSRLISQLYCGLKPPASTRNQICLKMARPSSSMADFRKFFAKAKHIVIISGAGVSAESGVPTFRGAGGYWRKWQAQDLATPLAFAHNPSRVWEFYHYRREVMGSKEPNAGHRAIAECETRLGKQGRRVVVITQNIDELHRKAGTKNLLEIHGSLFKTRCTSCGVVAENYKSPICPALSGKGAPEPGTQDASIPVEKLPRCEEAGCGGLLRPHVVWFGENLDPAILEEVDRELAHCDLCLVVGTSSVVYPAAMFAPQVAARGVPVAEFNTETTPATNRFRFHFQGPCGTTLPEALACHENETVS

Trypsin, sequence (P00761 whole entry): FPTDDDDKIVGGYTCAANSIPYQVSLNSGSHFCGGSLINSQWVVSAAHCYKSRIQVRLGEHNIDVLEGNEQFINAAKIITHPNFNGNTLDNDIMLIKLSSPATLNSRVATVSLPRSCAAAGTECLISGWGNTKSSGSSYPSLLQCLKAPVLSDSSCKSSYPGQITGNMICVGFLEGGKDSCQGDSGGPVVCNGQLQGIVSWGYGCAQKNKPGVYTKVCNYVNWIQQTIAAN
Kallikrein-7, sequence (P49862 whole entry): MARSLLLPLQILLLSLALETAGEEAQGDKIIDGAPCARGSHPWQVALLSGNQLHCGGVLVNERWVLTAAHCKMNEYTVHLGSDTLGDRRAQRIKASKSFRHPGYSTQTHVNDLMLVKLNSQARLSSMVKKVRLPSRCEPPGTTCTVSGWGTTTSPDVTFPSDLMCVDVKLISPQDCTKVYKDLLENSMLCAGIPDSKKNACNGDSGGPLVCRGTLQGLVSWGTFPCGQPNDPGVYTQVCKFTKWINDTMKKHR
E3 ubiquitin-protein ligase UHRF1, sequence (Q96T88 whole entry, the tested form may be a part): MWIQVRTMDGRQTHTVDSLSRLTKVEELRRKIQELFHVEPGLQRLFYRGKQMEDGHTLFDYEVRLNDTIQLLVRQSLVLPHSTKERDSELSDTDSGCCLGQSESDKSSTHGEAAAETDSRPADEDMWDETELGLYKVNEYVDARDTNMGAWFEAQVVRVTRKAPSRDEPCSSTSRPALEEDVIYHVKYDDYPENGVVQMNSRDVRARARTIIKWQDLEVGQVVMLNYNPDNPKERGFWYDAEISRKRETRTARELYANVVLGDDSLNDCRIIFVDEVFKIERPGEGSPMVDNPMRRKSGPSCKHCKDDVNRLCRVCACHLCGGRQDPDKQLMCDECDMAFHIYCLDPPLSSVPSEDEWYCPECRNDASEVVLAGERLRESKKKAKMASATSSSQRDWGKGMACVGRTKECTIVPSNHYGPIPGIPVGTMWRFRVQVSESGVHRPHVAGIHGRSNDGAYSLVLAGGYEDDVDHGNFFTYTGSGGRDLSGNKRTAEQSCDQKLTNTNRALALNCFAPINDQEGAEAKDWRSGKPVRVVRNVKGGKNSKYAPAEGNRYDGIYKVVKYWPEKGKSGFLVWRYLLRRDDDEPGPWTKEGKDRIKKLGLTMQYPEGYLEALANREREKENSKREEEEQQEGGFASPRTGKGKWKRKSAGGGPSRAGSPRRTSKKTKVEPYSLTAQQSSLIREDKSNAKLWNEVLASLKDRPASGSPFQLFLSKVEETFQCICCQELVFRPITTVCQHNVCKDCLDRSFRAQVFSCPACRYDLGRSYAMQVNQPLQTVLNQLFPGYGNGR
Protein Tat, sequence (P04608 whole entry): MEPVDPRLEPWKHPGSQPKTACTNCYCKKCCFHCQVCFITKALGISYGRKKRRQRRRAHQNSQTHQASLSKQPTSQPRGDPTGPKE

Compound: C=C(NNc1c(F)c(F)nc(F)c1F)c1ccc(OC)cc1
- IC50 (NADPH oxidase 1): > 17 µM (not active)

Compound: O=C(OCC(=O)N1CCN(C(=O)c2ccco2)CC1)c1sc2ccccc2c1Cl
- IC50 [1]: > 100 µM (active)
- IC50 [2]: 24 µM (active)

Compound: Cc1oc2c(CN3CCCC3)c(O)ccc2c(=O)c1-c1ccc(Br)cc1
- AC50 (Trypsin): 9.06 µM (active)
- AC50 (CAAX prenyl protease 2 [3]): 12 µM (active)
- AC50 (CAAX prenyl protease 2 [4]): 10 µM (active)
- EC50 (Kallikrein-7): > 69.5 µM (inactive)

Compound: O=C(NCCN1CCN(c2ccccc2)CC1)C1CCN(S(=O)(=O)c2cccc3nonc23)CC1
- IC50 (Protein Tat): > 100 µM (active)

Compound: Cc1ccc(-c2cc(-c3ccccc3)cc(-c3ccccc3)[n+]2-c2ccccc2C(=O)O)cc1.[O-][Cl+3]([O-])([O-])[O-]
- EC50 [5]: > 160 µM (inactive)
- EC50 [6]: 3.23 µM (inconclusive)
- IC50 [7]: 18.9 µM (inactive)

Compound: COc1cc2c(C#N)c(N3CCCCC3)nc(N)c2c(N)n1
- IC50 [8]: > 50 µM (not active)
- AC50 (Trypsin): 13.6 µM (active)
- AC50 (CAAX prenyl protease 2 [4]): 20 µM (active)

Compound: CC1=Nc2cc(C(=O)O)ccc2Sc2ccc(Br)cc21
- AC50 [9]: 18.8 µM (active)
